The NIST ThermoML archive (doi:10.1016/j.fluid.2006.06.024)
± gives the expanded uncertainty stated by the source.

Assay: activity coefficient (dimensionless); of the first substance listed, at infinite dilution; xn = mol fraction of the nth substance listed
Details: Gas, Chromatography, x1 = 0

activity coefficient (374 K) | activity coefficient (412.5 K) | activity coefficient (394.8 K) | activity coefficient (375.2 K) | activity coefficient (412.6 K) | Structure (SMILES) | activity coefficient (393.3 K)
6.5 ± 0.3 | 5.4 ± 0.3 | – | – | – | C=C(C)C [2-methylpropene] + CO | 6 ± 0.3
7 ± 0.3 | 5.6 ± 0.3 | 6.1 ± 0.3 | – | – | C=CCC [1-butene] + CO | –
– | – | 6.6 ± 0.3 | 7.3 ± 0.3 | 6 ± 0.3 | C/C=C/C [(E)-2-butene] + CO | –

Structure (SMILES) | activity coefficient (374 K) | activity coefficient (412.5 K) | activity coefficient (394.8 K) | activity coefficient (375.2 K) | activity coefficient (412.6 K) | activity coefficient (393.3 K)
C=CC=C [1,3-butadiene] + CO | 5 ± 0.2 | 4.2 ± 0.2 | – | – | – | 4.7 ± 0.2
